# In BindingDB's records for doi:10.1038/347146a0 (U. 109, 1990):
# pKi: −log10 of the molar value.
# Legend:
# D(2) dopamine receptor = D(2) dopamine receptor (Rattus norvegicus, UniProt P61169)
# D(3) dopamine receptor = D(3) dopamine receptor (Rattus norvegicus, UniProt P19020)
# Chain of D(3) dopamine receptor (P19020 whole entry): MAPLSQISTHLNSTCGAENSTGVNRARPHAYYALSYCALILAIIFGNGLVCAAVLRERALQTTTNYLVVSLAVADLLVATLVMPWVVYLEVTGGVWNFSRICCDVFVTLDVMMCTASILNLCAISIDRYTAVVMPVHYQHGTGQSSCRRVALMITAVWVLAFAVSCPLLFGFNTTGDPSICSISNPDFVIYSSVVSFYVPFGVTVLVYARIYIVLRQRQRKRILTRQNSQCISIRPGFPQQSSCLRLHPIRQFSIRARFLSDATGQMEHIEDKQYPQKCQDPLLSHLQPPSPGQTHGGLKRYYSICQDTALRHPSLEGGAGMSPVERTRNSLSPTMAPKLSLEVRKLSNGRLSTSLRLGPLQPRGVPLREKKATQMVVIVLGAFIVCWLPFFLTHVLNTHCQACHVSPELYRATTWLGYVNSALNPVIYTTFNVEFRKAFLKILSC
# Chain of D(2) dopamine receptor (P61169 whole entry): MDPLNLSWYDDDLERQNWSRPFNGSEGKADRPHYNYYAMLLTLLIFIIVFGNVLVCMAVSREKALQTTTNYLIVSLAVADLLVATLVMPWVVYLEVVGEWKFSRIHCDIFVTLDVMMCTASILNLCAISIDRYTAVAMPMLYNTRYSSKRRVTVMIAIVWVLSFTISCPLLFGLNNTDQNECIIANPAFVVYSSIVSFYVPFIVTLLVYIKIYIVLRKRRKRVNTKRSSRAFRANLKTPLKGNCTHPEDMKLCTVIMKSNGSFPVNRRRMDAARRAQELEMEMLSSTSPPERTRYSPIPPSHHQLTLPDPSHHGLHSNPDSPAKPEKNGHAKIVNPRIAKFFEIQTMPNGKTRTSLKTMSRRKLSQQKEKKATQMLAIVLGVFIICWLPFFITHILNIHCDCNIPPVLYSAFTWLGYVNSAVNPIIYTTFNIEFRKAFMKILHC
pKi (D(2) dopamine receptor),pKi (D(3) dopamine receptor),SMILES
9.21,8.92,CCS(=O)(=O)c1cc(C(=O)NCC2CCCN2CC2CC2)c(OC)cc1I (stereo unspecified) [NSC_122245]
5.77,7.57,Nc1nc2c(ncn2[C@@H]2O[C@H](COP(=O)(O)OP(=O)(O)NP(=O)(O)O)[C@@H](O)[C@H]2O)c(=O)[nH]1 [Guanylyl imidodiphosphate]

SMILES,pKi (D(2) dopamine receptor),pKi (D(3) dopamine receptor)
CCCN(CCC)C1C=Cc2c(OC)cccc2C1C (stereo unspecified) [CAS_5311190],7.40,8.04
